Values quoted from earlier work, collected in article PMC2931793 (Journal of neuroscience methods, 2008).

Tested on: IDE
Conditions: ref Song et al., 2001

For Abz-GGFLRKGVQ-EDDnp, the “Vmax of IDE-mediated cleavage” value is given as ~ 0.2 μmol min^−1 mg^−1.
For β-endorphin, the “Vmax of IDE-mediated cleavage” value is listed as 2.6 µmol/min/mg.
